From article PMC11061835, “Elucidating the Mechanism of Metabolism of Cannabichromene by Human Cytochrome P450s” (Journal of Natural Products, 2024)
Several values for one entry are separate records, joined by “and”; a condition that tells them apart may be missing. Equal values may be shown once.

Columns and labels:
[1] = biological target: T1, CYP2C8 (Homo sapiens, UniProt P10632); assay: CBC metabolism by CYP2C8; type: in vitro ADME; settings: CYP2C8, from Vmax
T1 construct: His-tag; made in house; host or cells: E. coli DH-5α with pTGro7 plasmid
T1 sequence (P10632 1-490): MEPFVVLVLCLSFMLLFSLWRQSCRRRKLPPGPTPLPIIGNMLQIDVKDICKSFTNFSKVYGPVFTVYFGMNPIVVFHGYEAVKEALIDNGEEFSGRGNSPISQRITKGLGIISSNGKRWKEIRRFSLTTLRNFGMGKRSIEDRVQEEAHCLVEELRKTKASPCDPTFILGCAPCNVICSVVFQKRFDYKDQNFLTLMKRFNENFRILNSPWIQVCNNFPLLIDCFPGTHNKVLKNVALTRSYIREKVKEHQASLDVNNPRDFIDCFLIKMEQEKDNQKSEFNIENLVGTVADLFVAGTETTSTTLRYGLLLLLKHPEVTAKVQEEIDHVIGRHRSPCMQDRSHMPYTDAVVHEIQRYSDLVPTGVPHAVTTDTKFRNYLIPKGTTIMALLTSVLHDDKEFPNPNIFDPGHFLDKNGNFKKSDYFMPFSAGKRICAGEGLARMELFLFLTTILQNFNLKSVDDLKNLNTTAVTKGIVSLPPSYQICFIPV
Procedure: To study the kinetics of CBC metabolism, concentration dependent metabolism of CBC was carried out in the presence of various CYPs using the following procedure. CYP2J2, CYP2C8, CYP2D6, CYP2C9, and CYP3A4 (final concentration 0.5 μM) were initially dissolved in lipid containing POPC:POPS (8:2 v/v) followed by addition of CPR (final concentration 0.6 μM) in 0.1 M potassium phosphate buffer (pH 7.4). CBC (5–80 μM) was added and incubated at 37 °C for 10 min. The reaction was triggered by NADPH and extracted using the exact sample protocol as mentioned in the HLM section.
Samples were analyzed with the 5500 QTRAP LC/MS/MS system (Sciex, Framingham, MA) in the Metabolomics Lab of Roy J. Carver Biotechnology Center, University of Illinois at Urbana–Champaign. Software Analyst 1.7.1 was used for data acquisition and analysis. The 1200 series HPLC system (Agilent Technologies, Santa Clara, CA) includes a degasser, an autosampler, and a binary pump. […] Multiple reaction monitoring (MRM) was used for quantitation: CBC m/z 315.1 → m/z 135.0; 1-acetoxy-6′,7′-dihydroxy-CBC (JM-I-73) m/z 349.1→ m/z 193.0; 1″-hydroxy-CBC (JM-I-66) m/z 331.1→ m/z 275.1; 6′,7′-epoxy-CBC (JM-I-27) m/z 331.1→ m/z 193.0; 7′,10′-ene-6′-hydroxy-CBC (JM-I-30) m/z 331.1→ m/z 193.0; 8′-hydroxy-CBC (JM-I-32) […]→ m/z 77.0. Internal standard EET-EA-d11 was monitored at m/z 375.2→ m/z 357.1.

[2] = biological target: T2, CYP2C8 in the presence of CPR (Homo sapiens, UniProt P10632); assay: Spectroscopic titration, CYP2C8–CPR complex; type: binding
T2 construct: His-tag; made in house; host or cells: E. coli DH-5α with pTGro7 plasmid (CYP)
T2 sequence (P10632 1-490): T1 sequence (P10632 1-490)
T2 sequence (P16435 1-677 partner): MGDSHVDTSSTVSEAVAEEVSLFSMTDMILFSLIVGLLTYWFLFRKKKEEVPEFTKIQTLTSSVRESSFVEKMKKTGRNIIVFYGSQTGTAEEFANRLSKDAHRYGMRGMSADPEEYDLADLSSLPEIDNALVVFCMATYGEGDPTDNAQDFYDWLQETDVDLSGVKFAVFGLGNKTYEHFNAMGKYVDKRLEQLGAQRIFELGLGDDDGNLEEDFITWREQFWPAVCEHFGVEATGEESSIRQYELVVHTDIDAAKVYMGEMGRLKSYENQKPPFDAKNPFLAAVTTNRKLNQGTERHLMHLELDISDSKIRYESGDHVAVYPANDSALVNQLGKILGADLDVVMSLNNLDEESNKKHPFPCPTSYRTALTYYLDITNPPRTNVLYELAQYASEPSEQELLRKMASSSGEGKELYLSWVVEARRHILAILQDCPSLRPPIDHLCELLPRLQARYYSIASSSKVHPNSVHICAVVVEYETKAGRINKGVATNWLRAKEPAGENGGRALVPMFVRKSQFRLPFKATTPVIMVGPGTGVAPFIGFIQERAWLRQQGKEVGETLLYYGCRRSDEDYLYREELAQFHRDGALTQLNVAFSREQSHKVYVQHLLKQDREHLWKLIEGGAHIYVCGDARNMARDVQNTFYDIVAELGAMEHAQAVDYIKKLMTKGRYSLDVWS
Procedure: For CBC titration to CYP–CPR complex, initially CYPs were dissolved in 400 μL of 0.1 M phosphate buffer (pH = 7.4) keeping the concentration between […]. Following this 50 μL of CPR (50 μM stock) was added to both cuvettes, and the final concentration of both of the proteins was 5–6 μM. Both proteins were initially mixed and incubated for 5 min followed by titration with CBC in the same process as mentioned above. The substrate-bound spectra were then subtracted from substrate-free spectra, and the extent of binding was analyzed using Origin Pro 2020.

[3] = set-up: method as in PMID 28640062; settings: patients who consumed a CBD oil, cited from earlier work

Row | Compound | ratio of 8′-hydroxy-CBC to 6′,7′-epoxy-CBC formed [1] | ΔAmax (spin state change due to heme perturbation) [2] | Kd ([2]; read-out: Kd(app)) | detectable level of CBC in plasma ([3]; plasma) [ng/mL] | detectable level of CBC in urine ([3]; urine) [ng/mL]
1 | CCCCCc1cc(O)c2c(c1)OC(C)(CC/C=C(\C)CO)C=C2 (centres unmarked) [8′-hydroxy-CBC] | around 5 | – | – | – | –
2 | CCCCCc1cc(O)c2c(c1)OC(C)(CCC=C(C)C)C=C2 (centres unmarked) [CBC, Cannabichromene] | – | 0.14 ± 0.00 and ~0.15 | 8.23 µM and ~8 µM and < 10 µM | ~60 | ~94
